These results are taken from US5373040A, “Amorphous solid modification of 2,2',2"-nitrilo[triethyl-tris-(3,3',5,5'-tetra-tert-butyl-1,1'-biphenyl- 2,2'-diyl)phosphite]” (Ciba-Geigy Corporation, priority 1993, dated 1994).

Series [1] in a line: Process stabilization of polypropylene at 525° F.: melt flow rate (ASTM D1238). The following applies: 0.075% by weight of each additive, 0.075% calcium stearate, 525° F. The procedure: (§1) The test additives are incorporated into the polypropylene by dry blending or, when the additive is a liquid, using a minimum amount of methylene chloride solvent. The solvent is then removed by evaporation under reduced pressure.
After each of the first, third and fifth extrusions, the melt flow rate (in grams/10 minutes) is determined by ASTM method D1238 on the pellets obtained from the extruder.

Series [2] in a line: Process stabilization of polypropylene: yellowness index of plaques (ASTM D1925). The following applies: 0.075% by weight of each additive, 0.075% calcium stearate.
From the text: as §1

Series [3] is described as follows: Solubility in lubricating oil (Mobil BB oil). It counts as physicochemical. The following applies: 1% by weight in Mobil BB oil (Exp. 4f), at 60° C. per footnote.
The nature of series [4]: Solubility in LLDPE film by diffusion-in, X-ray fluorescence. It counts as physicochemical. The procedure: Experiments are carried out to determine the solubility of the instant compound into linear low density polyethylene (LLDPE) films at 20° C., 40° C. and 60° C. by diffusion-in of a relatively homogeneous particle size (<70 microns) of the test sample suspended in silicon oil.
Each sample is carefully ground with a mortar and pestle and the particle size below 70 microns is separated by sieving with a 200 mesh screen. The powder is then suspended in silicon oil (polydimethylsiloxane, L-45, Union Carbide Chemicals) at a concentration of approximately 38% (wt/wt). A few drops of this suspension is placed on a 10 mil (0.254 mm) thick, 2"×2" (5.08 cm×5.08 cm) compression molded film and a second film of the same dimension is placed on top. The films are gently pressed together so that the suspension forms a thin liquid layer between the polymer films. Excess suspension is removed and the procedure is repeated till a stack of eight films (six films for evaluation) are prepared. The stack is then placed between two 2.5"×2.5" (6.35 cm×6.35 cm) ceramic tiles and wrapped in aluminum foil and held together with a G-clamp. Each stack is aged at 20° C., 40° C. and 60° C. under a nitrogen atmosphere. At specified intervals, a single film is removed from the stack and the excess suspension is washed from the film with hexane. The film is then analyzed by X-ray fluorescence for total phosphorus content. LLDPE containing 0, 1000 ppm and 2000 ppm of the test compound are used as standard controls for this X-ray fluorescence method.

The nature of series [5]: Apparent bulk density (ASTM D-1895). Type of series: physicochemical. Here is the method:
The apparent bulk density of the solids is measured according to the method of ASTM D-1895 (79). A higher apparent bulk density allows for a greater mass per unit volume which affords advantages in packaging of the solid product, such as lower costs for the packaging material, less storage space is required, etc.

A short description of series [6]: Solubility in lubricating oil (Mobil BB oil). Type of series: physicochemical. Here is the method:
The following experiments are performed to determine the solubility of amorphous compound A and crystalline compound B in Mobil BB oil. Both compounds have the same uniform particle sizes (40-70 micron).
Compound A=amorphous form of 2,2',2"-nitrilo-[triethyl-tris-(3,3',5,5'-tetra-tert-butyl-1,1'-biphenyl-2,2'-diyl) phosphite], prepared in accordance with instant Example 1.
Compound B=crystalline form of 2,2',2"-nitrilo[triethyl-tris-(3,3',5,5'-tetra-tert-butyl-1,1'-biphenyl-2,2'-diyl) phosphite], prepared in accordance with Example 4 of U.S. Pat. No. 4,318,845.
Into a vial of 980 mg. of Mobil BB oil is added 20 mg. of compound A at ambient temperature. For the first 30 minutes, the vial is shaken every 10 minutes. After the initial 30 minutes, the vial is left standing.
Into a vial of 980 mg. of Mobil BB oil is added 20 mg. of compound B at ambient temperature. For the first 30 minutes, the vial is shaken every 10 minutes. After the initial 30 minutes, the vial is left standing.
Into a vial of 980 mg. of Mobil BB oil is added 20 mg. of compound A at ambient temperature. The vial is then placed into a 60° C. oil bath.
Into a vial of 980 mg. of Mobil BB oil is added 20 mg. of compound B at ambient temperature. The vial is then placed into a 60° C. oil bath.
Into a vial of 990 mg. of Mobil BB oil is added 10 mg. of compound A at ambient temperature. […] is shaken every 10 minutes. After the initial 30 minutes, the vial is left standing.
Into a vial of 990 mg. of Mobil BB oil is added 10 mg. of compound B at ambient temperature. […] is shaken every 10 minutes. After the initial 30 minutes, the vial is left standing.

`CC(C)(C)c1cc(CCC(=O)OCC(COC(=O)CCc2cc(C(C)(C)C)c(O)c(C(C)(C)C)c2)(COC(=O)CCc2cc(C(C)(C)C)c(O)c(C(C)(C)C)c2)COC(=O)CCc2cc(C(C)(C)C)c(O)c(C(C)(C)C)c2)cc(C(C)(C)C)c1O` [Base, neopentanetetrayl tetrakis(3,5di-tert-butyl-4-hydroxyhydrocinnamate)]: the “Melt Flow after Extrusion 5” value in series [1] (after fifth extrusion) is given as 17.5 grams/10 minutes. In series [1] (after first extrusion), the “Melt Flow after Extrusion 1” value amounted to 8.1 grams/10 minutes. The “Melt Flow after Extrusion 3” value in series [1] (after third extrusion) was 12.9 grams/10 minutes. Besides, in series [2] (after fifth extrusion), the “Yellowness Index (YI) Values after Extrusion 5” value was found to be 11.0. For the same compound, the “Yellowness Index (YI) Values after Extrusion 1” value in series [2] (after first extrusion) came to 7.6. Besides, in series [2] (after third extrusion), the “Yellowness Index (YI) Values after Extrusion 3” value was found to be 9.0.

As for `CC(C)(C)c1cc(C(C)(C)C)c2op(OCCN(CCOp3oc4c(C(C)(C)C)cc(C(C)(C)C)cc4c4cc(C(C)(C)C)cc(C(C)(C)C)c4o3)CCOp3oc4c(C(C)(C)C)cc(C(C)(C)C)cc4c4cc(C(C)(C)C)cc(C(C)(C)C)c4o3)oc3c(C(C)(C)C)cc(C(C)(C)C)cc3c2c1` [Example 4 of U.S. 4,318,845, 2,2',2"-nitrilo[triethyl-tris-(3,3',5,5'-tetra-tert-butyl-1,1'-biphenyl-2,2'-diyl)phosphite], reference compound], the “Time to clear solution” value in series [3] came to 5 h; in series [6] (1% by weight in Mobil BB oil, RT, listed as compound B), 16 h; in series [6] (2% by weight in Mobil BB oil, 60° C. oil bath, listed as B), 5 h; in series [6] (2% by weight in Mobil BB oil, 60° C. oil bath, listed as compound B) it was 16 h; in series [6] (2% by weight in Mobil BB oil, RT, listed as B), 16 h; in series [6] (2% by weight in Mobil BB oil, RT, listed as compound B), 16 h. For the same compound, the “Solubility of Compound in LLDPE at 20° C.” value in series [4] (interval 15 (time unit not given)) is given as 1500 ppm; in series [4] (interval 28 (time unit not given)), 1000 ppm; in series [4] (interval 35 (time unit not given)) it was 1200 ppm; in series [4] (interval 44 (time unit not given)), 1200 ppm; in series [4] (third section, interval 6 (time unit not given)), 1000 ppm; in series [4] (third section, interval 14 (time unit not given)), 800 ppm. The “Solubility of Compound in LLDPE at 20° C.” value in series [4] (third section, interval 22 (time unit not given)) is listed as 1000 ppm; in series [4] (third section, interval 28 (time unit not given)), 900 ppm; in series [4] (third section, interval 37 (time unit not given)) it was 900 ppm. Moreover, the “Solubility of Compound in LLDPE at 40° C.” value was 500 ppm in series [4] (interval 10 (time unit not given)); 1750 ppm in series [4] (interval 17 (time unit not given)); 750 ppm in series [4] (interval 25 (time unit not given)); 400 ppm in series [4] (interval 34 (time unit not given)); 600 ppm in series [4] (interval 40 (time unit not given)); 1400 ppm in series [4] (interval 47 (time unit not given)). For the same compound, the “Bulk Density” value in series [5] is given as 0.44 g/mL. In addition, the Observation entry in series [6] (1% by weight in Mobil BB oil, RT, 1.5 hrs., listed as B) is recorded as “Cloudy”; in series [6] (1% by weight in Mobil BB oil, RT, 1.5 hrs., listed as compound B) it was “cloudy suspension”; in series [6] (2% by weight in Mobil BB oil, 60° C. oil bath, 10 min., listed as B), “Cloudy”; in series [6] (2% by weight in Mobil BB oil, 60° C. oil bath, 10 min., listed as compound B) it was “cloudy suspension”; in series [6] (2% by weight in Mobil BB oil, RT, 2.5 hrs., listed as B), “Cloudy”; in series [6] (2% by weight in Mobil BB oil, RT, 2.5 hrs., listed as compound B) it was “cloudy suspension”.
